Measurements published in US20220193030A1, “USE OF GINKGO TERPENE LACTONE IN PREPARING DRUG FOR PREVENTING AND/OR TREATING GUILLAIN-BARRE-STROHL SYNDROME” (CHENGDU BAIYU PHARMACEUTICAL CO., LTD., priority 2019, published 2022).
Marks after values point to notes of the source that are not given here.

Experiments:
EAN model rats [1] = experiment: Pre-experimental dose study: clinical score of neurological symptoms of EAN model rats; assay type: in vivo, Lewis rats; details: score 0-10
Procedure: Persons skilled in the art learn that, pharmacological effect and dose are in a proportional relationship, i.e., a dose-effect relationship, only within a certain range.
(§1) For each rat in an EAN model group, an inoculum was subcutaneously injected into foot pads of hind limbs on two sides, 200 μL/rat (100 μL per side). […] For the negative control group, isopyknic normal saline was injected. For each group of animals, medicine administration was started from the first day after immunization, for 30 days in total.
(§2) The day of molding serves as the 0th day, and after that is 30 days of observation period. Observation date is represented by D plus number, D1, D2 and D3 respectively represent Observation date 1, Observation date 2 and Observation date 3, and subsequent dates are represented in the same way. Rats were weighed once every two days, and clinical symptoms of all experimental animals were scored. Within one week of a peak period (D14-D20) of disease attack of animals, weighing and clinical symptom scoring were performed every day. Score standards are as below: 0, normal; 1, a soft tail; 2, unable to lift a tail; 3, unable to automatically correct a body position; 4, ataxia; 5, mild paralysis of hind limbs; 6, moderate paralysis of hind limbs; 7, severe paralysis of hind limbs; 8, paresis of four limbs; 9, severe paresis of four limbs; and 10, death.
(§3) Data is represented by mean±standard deviation (x±SD). For scores of symptoms and scores of algesia, a non-parametric test Mann-Whitney U was used to compare differences between two groups. When P is less than 0.05, a statistic difference occurs.

EAN model rats [2] = experiment: Scores of neurological symptoms (clinical score) of EAN model rats, Test Example 1; assay type: in vivo, Lewis rats; parameters: key: 0 = normal, 5 = mild hind-limb paralysis, 10 = death; details: monomers 4.5 mg/kg, combinations 6.0-13.5 mg/kg; for Clinical score D12: D12, intragastric 2 times a day; for Clinical score D14: D14, intragastric 2 times a day; for Clinical score D20: D20, intragastric 2 times a day; for Clinical score D22: D22, intragastric 2 times a day; for Clinical score D24: D24, intragastric 2 times a day; for Clinical score D26: D26, intragastric 2 times a day
Procedure: 20 experimental groups, 10 […] in each group.
(§4) Intragastric administration, 2 times a day. Medicines were dissolved in accessories (glycerin:ethanol=6:4 V/V) to reach 5 mg/ml, and then were configured to reach corresponding concentrations by using sterilized drinking water.
as §1, §2, §3

EAN model rats [3] = experiment: Test on algesia of ankle joint (pain reaction score) of EAN model rats; assay type: in vivo, Lewis rats; details: ankle dorsiflexion, score 0-5
Procedure: as §4, §1
Near a peak period of disease attack of EAN model animals, a test on algesia of ankle joints was performed on EAN model animals and adjuvant control animals, and rats in a rest state were forced to bend hind legs towards foot soles (dorsiflexion). For each side, 5 tests were made, at an interval of at least 5 s. For each time of dorsiflexion, if rats screamed or obviously withdrew paws, 1 score was counted. For each side, a total score is 0-5.
as §3

TNF-α = experiment: mRNA level of TNF-α in sciatic nerve tissue of EAN model rabbits (RT-PCR); assay type: in vivo, big-ear white rabbits; details: 14th day after modeling, ginkgolide groups 4.5 mg/kg intragastric 2 times a day, positive control 400 mg/kg·d i.p. 5 days
Procedure: (§5) 21 experimental groups, 8 rabbits in each group.
(§6) Positive control group: rabbit immune globulin, 400 mg/kg·d, intraperitoneal injection, for 5 consecutive days
(§7) The ginkgolide groups are set the same as Test example 1, i.e., include the ginkgolide A group to the ginkgolide K group (GA group to GK group), the bilobalide group (BB group) and the ginkgolide I group to the ginkgolide XI group, 18 groups in total. Ginkgolide used in each group has the same monomeric composition and ratio as those of Test example 1, but only differs in that the ginkgolide groups all use the same medicine administration dosage, i.e., 4.5 mg/kg.
as §4
(§8) EAN rabbit modeling: a certain amount of bovine sciatic nerve myelin basic protein and an isopyknic complete Freund's adjuvant were taken, shaken up by using a test tube oscillator, sufficiently mixed, and then subcutaneously injected into a back of each rabbit at multiple points.
(§9) Anesthesia was performed on the 14th day after modeling, to take sciatic nerve tissue of rabbits, and total RNA was extracted by a Trizol method. Detection was performed by a RT-PCR method. (GBS is an autoimmune disease of a nervous system. In-vivo autoreactive T cells of a patient have a cellular immunologic response to myelin P2 antigens, to form a delayed allergic reaction peripheral nerve demyelination pathological injury. This process is mainly mediated by CD4^+T cells, also named initial Th cells that may be differentiated into Th1 and Th2 after antigenic stimulation. Th1 cytokines (represented by TNF-α and IL-12) mainly enhance a cell mediated immune response, and are inflammatory cytokines; and Th2 cytokines (represented by IL-4 and IL-10) mainly participate in an antibody mediated immune response, and have an immune down-regulation and anti-inflammation effect. In GBS and ENA research, unbalance of Th1/Th2 plays an important role in disease injuries.)
(§10) Data is represented by mean±standard deviation (x±SD). Differences between two groups were compared. When P is less than 0.05, a statistic difference occurs.

IL-12 = experiment: mRNA level of IL-12 in sciatic nerve tissue of EAN model rabbits (RT-PCR); assay type: in vivo, big-ear white rabbits; details: 14th day after modeling, ginkgolide groups 4.5 mg/kg intragastric 2 times a day, positive control 400 mg/kg·d i.p. 5 days
Procedure: as §5, §6, §7, §4, §8, §9, §10

IL-4 = experiment: mRNA level of IL-4 in sciatic nerve tissue of EAN model rabbits (RT-PCR); assay type: in vivo, big-ear white rabbits; details: 14th day after modeling, ginkgolide groups 4.5 mg/kg intragastric 2 times a day, positive control 400 mg/kg·d i.p. 5 days
Procedure: as §5, §6, §7, §4, §8, §9, §10

IL-10 = experiment: mRNA level of IL-10 in sciatic nerve tissue of EAN model rabbits (RT-PCR); assay type: in vivo, big-ear white rabbits; details: 14th day after modeling, ginkgolide groups 4.5 mg/kg intragastric 2 times a day, positive control 400 mg/kg·d i.p. 5 days
Procedure: as §5, §6, §7, §4, §8, §9, §10

Row | Compound | Clinical score (D17) (EAN model rats [1]; 2.0 mg/kg) | Clinical score (D17) (EAN model rats [1]; 4.5 mg/kg) | Clinical score (D17) (EAN model rats [1]; 15 mg/kg) | Clinical score D12 (EAN model rats [2]) | Clinical score D14 (EAN model rats [2]) | Clinical score D20 (EAN model rats [2]) | Clinical score D22 (EAN model rats [2]) | Clinical score D24 (EAN model rats [2]) | Clinical score D26 (EAN model rats [2]) | Pain reaction score (D18) (EAN model rats [3]) | Cytokines TNF-α (mRNA level, sciatic nerve tissue) (TNF-α) | Cytokines IL-12 (mRNA level, sciatic nerve tissue) (IL-12) | Cytokines IL-4 (mRNA level, sciatic nerve tissue) (IL-4) | Cytokines IL-10 (mRNA level, sciatic nerve tissue) (IL-10) | Clinical score D16 (EAN model rats [2]; D16, intragastric 2 times a day) | Clinical score (D17) (EAN model rats [2]; D17, intragastric 2 times a day) | Clinical score D19 (EAN model rats [2]; D19, intragastric 2 times a day)
1 | C[C@@H]1C(=O)O[C@@H]2[C@H]1[C@@]13OC4OC(=O)[C@H](O)C45[C@H](C(C)(C)C)[C@@H](O)C(OC1=O)[C@]53[C@H]2O (stereo partly drawn) [Ginkgolide M, ginkgolide M] | 7.10 ± 0.32 | 6.40 ± 0.97*^Δ | 6.50 ± 0.71*^Δ | 4.5 ± 0.7 | 5.6 ± 0.5 | 5.5 ± 0.5 | 4.6 ± 0.5 | 4.0 ± 0.7 | 3.2 ± 0.6 | 1.4 ± 0.52 | 4.797 ± 0.147 | 6.260 ± 0.411 | 0.558 ± 0.050 | 0.550 ± 0.061 | – | – | –
2 | ginkgolide J | 7.10 ± 0.57 | 6.40 ± 0.84*^Δ | 6.30 ± 0.82*^Δ | 4.4 ± 0.7 | 5.5 ± 0.5 | 5.6 ± 0.5 | 4.6 ± 0.5 | 4.0 ± 0.7 | 3.2 ± 0.6 | 1.3 ± 0.67 | 4.810 ± 0.070 | 6.211 ± 0.489 | 0.551 ± 0.050 | 0.501 ± 0.037 | 6.5 ± 0.5 | 7.4 ± 0.5 | 6.2 ± 0.6
3 | CC(C)(C)[C@]1(O)CC2OC(=O)CC23C(=O)OC2OC(=O)[C@H](O)C231 (stereo partly drawn) [Bilobalide, bilobalide] | 5.70 ± 0.67 | 4.80 ± 0.63*^Δ | 4.90 ± 0.88*^Δ | – | – | – | – | – | – | 2.9 ± 0.74 | 3.054 ± 0.182 | 4.087 ± 0.275 | 0.792 ± 0.065 | 0.783 ± 0.128 | – | – | –
4 | CC1C(=O)OC2C(O)C34C5CC(C(C)(C)C)C36C(OC(=O)C6O)OC4(C(=O)O5)C12O (stereo not drawn) [Ginkgolide B, ginkgolide B] | 6.10 ± 1.10 | 5.10 ± 0.57*^Δ | 5.20 ± 0.63*^Δ | – | – | – | – | – | – | 3.0 ± 0.67 | 2.978 ± 0.102 | 3.928 ± 0.409 | 0.769 ± 0.041 | 0.813 ± 0.055 | – | – | –
5 | ginkgolide C | 6.90 ± 0.88 | 6.10 ± 0.57*^Δ | 6.00 ± 0.67*^Δ | 4.4 ± 0.7 | 5.2 ± 0.8 | – | 4.4 ± 0.5 | 3.8 ± 0.8 | 3.1 ± 0.6 | 1.9 ± 0.88 | 4.548 ± 0.154 | 6.009 ± 0.357 | 0.585 ± 0.053 | 0.561 ± 0.090 | – | – | –
6 | CC1=C2[C@@H](OC1=O)[C@H](O)[C@]13[C@H]4C[C@@H](C(C)(C)C)[C@]15[C@@H](OC(=O)[C@@H]5O)O[C@@]23C(=O)O4 [Ginkgolide K, ginkgolide K] | 7.20 ± 0.42 | 6.50 ± 0.85*^Δ | 6.70 ± 0.82*^Δ | 4.5 ± 0.7 | 5.6 ± 0.5 | 5.5 ± 0.5 | 4.5 ± 0.5 | 3.9 ± 0.7 | 3.1 ± 0.6 | 1.2 ± 0.63 | 4.739 ± 0.094 | 6.412 ± 0.169 | 0.557 ± 0.046 | 0.524 ± 0.026 | – | – | –
7 | C[C@@H]1C(=O)O[C@H]2C[C@@]34[C@H]5C[C@@H](C(C)(C)C)[C@]36[C@@H](OC(=O)[C@@H]6O)O[C@@]4(C(=O)O5)[C@]21O [Ginkgolide A, ginkgolide A] | 7.00 ± 0.82 | 6.10 ± 0.74*^Δ | 6.00 ± 1.25*^Δ | 4.4 ± 0.5 | 5.3 ± 0.5 | – | 4.4 ± 0.5 | 3.7 ± 0.8 | 3.1 ± 0.6 | 2.0 ± 0.67 | 4.693 ± 0.115 | 5.977 ± 0.141 | 0.569 ± 0.048 | 0.584 ± 0.039 | – | – | –
